Test results: US8349991B2, “Amphiphilic polymers and methods of use thereof” (Massachusetts Institute of Technology, priority 2005, dated 2013)
Entries after “also recorded” stand apart in the source; their conditions may differ. Where no end group is shown, it is not given here. The star is where a group is joined. Acm = CC(=O)NC*

What was measured:
[1] = Acute oral toxicity testing (LD50); settings: C57BI/6, mouse, in vivo
Procedure: Acute oral toxicity testing of intact nanospheres and individual components was carried out to determine the LD50 (median lethal dose) with C57BI/6 (Table 2).

[2] = test system: INS-1 cells; experiment: Cellular cytotoxicity by MTS after exposure to polymers and reagents; type: cell-based; settings: 1 mg/mL polymer or 0.05 mg/mL dye, 37° C., up to 48 hours post-exposure
Procedure: Cellular cytotoxicity following exposure to the polymers and reagents: INS-1 cells were incubated with the polymers and/or reagents (1 mg/mL polymer or 0.05 mg/mL dye) at 37° C., and cellular viability was determined by MTS (FIG. 5).

[3] = test system: Cells; settings: 0.2 mg/mL, 5 hr, 37° C.
[4] = test system: INS cells; settings: 0.2 mg/mL, 37° C.
[5] = test system: uMUC-1-positive tumors versus uMUC-1-negative tumors; set-up: species or system mice; settings: mouse, in vivo
Procedure: (§1) In vivo ^1H-MR imaging was performed on animals bearing bilateral uMUC-1-positive and uMUC-1-negative tumors before and 24 hours after probe injection. […] The same animals were subjected to optical imaging immediately after the MR-imaging session. […] Fluorescence microscopy of excised tumors and muscle tissue gave results consistent with NIRF images. From biodistribution studies with ^125I-CLIO-EPPT, on average uMUC-1-positive tumors accumulated 3.4 times more of the probe than uMUC-1-negative tumors.

[6] = Dynamic light scattering of CLIO-EPPT probes; type: physicochemical
Description: To extend these studies using perfluoro labeled polymer, the same FITC-labeled EPPT1 peptide was used. […] The study with the CLIO-EPPT nanoparticles established test procedures which will be used.

[7] = test system: adenocarcinoma cell lines (BT-20, CAPAN-2, ChaGo-K-1, HT-29, LS174T); experiment: In vitro specificity of CLIO-EPPT (flow cytometry, fluorescence microscopy); type: cell-based, human
Description: (§2) FIG. 7 depicts a crosslinked iron oxide (CLIO)-EPPT multi-modal imaging probe. (A) The core protein of the MUC-1 tumor antigen. The immunodominant region of the tandem repeat is recognized by the EPPT1 peptide derived from an ASM2 monoclonal antibody (45). (B) Synthesis (left) and scheme of the probe (right). […] Left, overlay of the bright field and FITC channel; middle, overlay of the bright field and Cy5.5 channel; right, overlay of the FITC and Cy5.5 channels. […] Magnification bars=10 μm.
(§3) In vitro specificity of CLIO-EPPT for adenocarcinomas was further characterized by flow cytometric analysis of probe binding to selected adenocarcinoma and control cell lines (FIG. 7E). […] Fluorescence microscopy experiments, in which adenocarcinoma and control cells were incubated with the probe, confirmed the fluorescence-activated cell sorting data.

[8] = test system: control uMUC-1-negative cell line U87; experiment: as above; type: cell-based, human
Description: as §2, §3

[9] = test system: human uMUC-1-positive tumor cell lines; experiment: Cell binding assay with 125I-labeled CLIO-EPPT; type: cell-based
Description: as §2
(§4) Cell binding assays (FIG. 7D) were carried out with a variety of human uMUC-1-positive tumor cell lines: ZR-75-1 (breast), BT-20 (breast), HT29 (colon), CAPAN-2 (pancreas), LS174T (colon), and ChaGo-K-1 (lung) as well as human control uMUC-1-negative tumor and normal cell lines.

[10] = test system: human control uMUC-1-negative tumor and normal cell lines; experiment: Cell binding assay with 125I-labeled CLIO-EPPT; type: cell-based; settings: 1 hour incubation
Description: as §2, §4

[11] = test system: uMUC-1-negative (U87) tumors; experiment: In vivo MR and NIRF imaging of tumor-bearing animals; set-up: species or system mice; settings: control tumors
Procedure: (§5) (B) White light (left), near-infrared fluorescent (NIRF) (middle) images, and a color-coded map (right) of mice bearing bilateral underglycosylated mucin-1 antigen uMUC-1-negative (U87) and uMUC-1-positive (LS174T) tumors. NIRF imaging was performed immediately after the MRI session. […] (D) Dual channel fluorescence microscopy of the frozen LS 174T tumor section. Green channel fluorescence from the FITC-labeled EPPT peptide (left) colocalized with Cy5.5 fluorescence derived from Cy5.5-labeled cross-linked iron oxides (middle). […] Magnification bar=10 μm.
as §1

[12] = test system: uMUC-1-positive (LS174T) tumors; experiment: as above; set-up: species or system mice
Procedure: as §5, §1

[13] = target: underglycosylated mucin-1 antigen (uMUC-1) (Homo sapiens, UniProt P15941); settings: read-out: binding constant Kd; cited from earlier work
underglycosylated mucin-1 antigen (uMUC-1), sequence (P15941 24-1255): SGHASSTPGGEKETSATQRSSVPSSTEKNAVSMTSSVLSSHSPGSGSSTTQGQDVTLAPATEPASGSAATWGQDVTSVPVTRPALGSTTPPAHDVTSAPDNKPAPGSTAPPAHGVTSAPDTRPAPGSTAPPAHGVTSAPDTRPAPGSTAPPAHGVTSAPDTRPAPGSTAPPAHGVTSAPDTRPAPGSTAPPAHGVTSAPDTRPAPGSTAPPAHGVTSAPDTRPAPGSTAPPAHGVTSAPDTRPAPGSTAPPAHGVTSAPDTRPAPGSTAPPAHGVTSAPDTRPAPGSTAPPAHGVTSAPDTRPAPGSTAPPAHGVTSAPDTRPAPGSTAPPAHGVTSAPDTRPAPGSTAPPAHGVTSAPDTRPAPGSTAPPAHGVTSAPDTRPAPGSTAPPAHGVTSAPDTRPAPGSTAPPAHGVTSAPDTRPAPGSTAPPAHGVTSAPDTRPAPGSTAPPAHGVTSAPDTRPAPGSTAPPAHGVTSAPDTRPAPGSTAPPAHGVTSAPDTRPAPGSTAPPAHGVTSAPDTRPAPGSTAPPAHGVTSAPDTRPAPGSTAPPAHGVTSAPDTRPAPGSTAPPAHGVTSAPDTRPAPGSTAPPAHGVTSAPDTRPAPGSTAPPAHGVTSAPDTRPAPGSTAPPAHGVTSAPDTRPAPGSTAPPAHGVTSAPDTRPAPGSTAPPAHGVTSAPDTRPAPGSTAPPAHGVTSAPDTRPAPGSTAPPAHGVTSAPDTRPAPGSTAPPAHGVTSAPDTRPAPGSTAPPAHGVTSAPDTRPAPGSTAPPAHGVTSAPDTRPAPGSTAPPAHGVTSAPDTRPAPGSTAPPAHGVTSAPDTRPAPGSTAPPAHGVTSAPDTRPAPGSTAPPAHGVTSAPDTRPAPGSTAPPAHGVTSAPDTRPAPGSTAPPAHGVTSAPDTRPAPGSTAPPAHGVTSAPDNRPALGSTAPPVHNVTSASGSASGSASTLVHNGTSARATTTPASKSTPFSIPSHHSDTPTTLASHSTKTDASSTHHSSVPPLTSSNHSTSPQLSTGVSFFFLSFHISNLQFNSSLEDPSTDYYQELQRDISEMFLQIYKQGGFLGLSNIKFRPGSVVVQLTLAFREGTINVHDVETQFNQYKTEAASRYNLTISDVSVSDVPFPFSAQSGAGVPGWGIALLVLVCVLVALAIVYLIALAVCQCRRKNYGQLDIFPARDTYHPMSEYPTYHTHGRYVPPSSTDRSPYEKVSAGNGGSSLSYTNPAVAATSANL

Question: For `N[C@@H](CC(=O)O)C(=O)O` [Aspartic Acid], which LD50 [1] is on record?
Answer: 20000 mg/kg

Question: With `CCN(CC)c1ccc2c(-c3ccccc3C(=O)O)c3ccc(=[N+](CC)CC)cc-3oc2c1` [Rhodamine, Rhodamine B] as the compound, how does the “cytotoxicity (cellular viability by MTS)” value [2] read?
Answer: cytotoxic effects were readily observed

Question: With `COc1cccc2c1C(=O)c1c(O)c3c(c(O)c1C2=O)C[C@@](O)(C(=O)CO)C[C@@H]3O[C@H]1C[C@H](N)[C@H](O)[C@H](C)O1` [doxorubicin] as the compound, how does the “intracellular localization (confocal microscopy)” value [3] read?
Answer: largely confined to the nucleus

Question: And the “rate of cell death (MTS)” value [4]?
Answer: comparable rate of cell death

Question: For “CLIO-EPPT: cross-linked iron oxide nanoparticle carrying Cy5.5 dye and FITC-labeled EPPT1 peptides on the dextran coat; radioiodinated for binding and biodistribution (YC(Acm)AREPPTRTFAYWG-{K(FITC)-Lys}; not fully specified; printed as Y-C(ACM)-A-R-E-P-P-T-R-T-F-A-Y-W-G-K(FITC)K; also: conjugated to CLIO iron oxide nanoparticle with Cy5.5 dye, radioiodinated)”, which “probe accumulation in uMUC-1-positive tumors relative to uMUC-1-negative tumors” value [5] is on record?
Answer: 3.4 times

Question: And the hydrodynamic diameter [6]?
Answer: about 36 nm

Question: And the “probe binding by flow cytometry” value [7]?
Answer: bound the probe; also recorded: a shift in fluorescence in the FLI and FL4 channels

Question: What about the “staining by fluorescence microscopy” value ([7]; FITC and Cy5.5 channels) of the same compound?
Answer: stained strongly; also recorded: colocalization of the FITC and Cy5.5 signal

Question: What about the “staining by fluorescence microscopy” value ([8]; U87, FITC or Cy5.5 channels) of the same compound?
Answer: no fluorescence was observed

Question: What about the “probe binding by flow cytometry” value ([8]; control cell line U87) of the same compound?
Answer: no cell binding; also recorded: no shift

Question: What about the “CLIO-EPPT nanoparticles bound per cell” value ([9]; 125I-labeled, 1 hour incubation) of the same compound?
Answer: 10^7-10^8 nanoparticles per cell

Question: What about the “accumulation versus uMUC-1-negative tumor or normal cells” value ([9]; cell binding assay, P<0.05) of the same compound?
Answer: significantly more

Question: And the “nanoparticle uptake versus uMUC-1-positive tumor cell lines” value [10]?
Answer: much lower nanoparticle uptake

Question: What about the NIRF signal [11] of the same compound?
Answer: no significant signal

Question: And the “dual channel fluorescence microscopy of excised tumors” value [11]?
Answer: no signal

Question: And the “decrease in signal intensity of T2-weighted MR images” value ([11]; 24 hours after probe injection)?
Answer: 13-18%

Question: What about the “decrease in signal intensity of T2-weighted MR images” value ([12]; LS174T tumors, 24 h after probe injection) of the same compound?
Answer: 52%

Question: What about the “dual channel fluorescence microscopy of excised tumors” value ([12]; uMUC-1-positive tumors) of the same compound?
Answer: colocalization of FITC and Cy5.5 signals

Question: And the NIRF signal ([12]; uMUC-1-positive tumors, immediately after MR-imaging session)?
Answer: high intensity NIRF signal; also recorded: strong NIRF signal

Question: For “synthetic peptide YCAREPPTRTFAYWG (SEQ ID NO: 1) derived from CDR3 Vh region of monoclonal antibody ASM2 (not fully specified (C-terminus); listed as Homo sapiens) [EPPT1]”, which Kd [13] is on record?
Answer: 20 µM
